Values quoted from earlier work in EP4759311A1, “TRPM8 INHIBITORS FOR USE IN THE PREVENTION OR TREATMENT OF JOINT DAMAGE, JOINT DEGENERATION AND/OR JOINT INFLAMMATION CAUSED BY OSTEOARTHRITIS” (Dompé farmaceutici SpA, priority 2024, dated 2026).

Molecular target: TRPM8 (Homo sapiens, UniProt Q7Z2W7)
Details: TRPM8 inhibitor; no method given

TRPM8, sequence (Q7Z2W7 whole entry, species assumed): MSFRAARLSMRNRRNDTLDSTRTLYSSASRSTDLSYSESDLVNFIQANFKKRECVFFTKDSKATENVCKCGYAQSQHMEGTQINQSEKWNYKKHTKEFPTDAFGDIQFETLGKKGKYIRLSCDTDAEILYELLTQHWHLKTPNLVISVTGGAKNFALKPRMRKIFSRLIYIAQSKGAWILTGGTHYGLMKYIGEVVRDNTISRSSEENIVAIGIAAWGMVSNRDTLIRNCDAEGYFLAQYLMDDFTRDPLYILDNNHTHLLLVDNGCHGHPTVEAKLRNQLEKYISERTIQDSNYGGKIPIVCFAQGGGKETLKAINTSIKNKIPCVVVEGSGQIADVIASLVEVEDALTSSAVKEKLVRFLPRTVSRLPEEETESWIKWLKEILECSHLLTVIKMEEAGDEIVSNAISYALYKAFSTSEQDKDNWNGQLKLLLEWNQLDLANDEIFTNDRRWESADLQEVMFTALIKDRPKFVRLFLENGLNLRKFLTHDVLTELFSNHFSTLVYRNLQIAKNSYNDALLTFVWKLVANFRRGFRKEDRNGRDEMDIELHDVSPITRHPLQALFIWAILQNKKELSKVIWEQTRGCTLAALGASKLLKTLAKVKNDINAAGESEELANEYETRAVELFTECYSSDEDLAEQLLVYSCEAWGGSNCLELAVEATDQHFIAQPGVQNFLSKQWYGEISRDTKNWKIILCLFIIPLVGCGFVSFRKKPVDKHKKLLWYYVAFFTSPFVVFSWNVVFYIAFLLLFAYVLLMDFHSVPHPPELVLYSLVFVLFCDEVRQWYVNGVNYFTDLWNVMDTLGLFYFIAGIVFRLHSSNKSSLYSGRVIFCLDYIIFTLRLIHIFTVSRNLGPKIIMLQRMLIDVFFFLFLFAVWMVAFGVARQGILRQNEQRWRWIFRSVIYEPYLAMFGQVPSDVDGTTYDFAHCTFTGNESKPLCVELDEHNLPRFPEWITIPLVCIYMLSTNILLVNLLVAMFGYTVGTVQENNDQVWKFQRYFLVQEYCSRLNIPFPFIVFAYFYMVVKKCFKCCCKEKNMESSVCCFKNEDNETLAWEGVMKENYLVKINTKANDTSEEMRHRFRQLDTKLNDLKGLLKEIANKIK

| SMILES | IC50 [nM] |
| --- | --- |
| O=C(O)c1ccc(S(=O)(=O)N(Cc2ccc(OC(F)(F)F)cc2)c2ncc(C(F)(F)F)cc2Cl)cc1 [RQ-00203078, 4-[[[3-Chloro-5-(trifluoromethyl)-2-pyridinyl][[4-(trifluoromethoxy)phenyl]methyl]amino]sulfonyl]benzoic acid] | 5.3 |
| COC(=O)[C@H](Cc1c[nH]c2ccccc12)N(Cc1ccccc1)Cc1ccccc1 [TRPM8 antagonist 2, N,N-Bis(phenylmethyl)-L-tryptophan methyl ester] | 0.2 |
